Assays:
striatal DA release = experiment: Electrically evoked striatal DA release in brain slices (fast scanning cyclic voltammetry); conditions: 10 μM DHPG alone, mouse slices
Procedure: into the home cage. The arena is then cleaned with 70% ethanol in between animals. The day of the test the animals are habituated to the dosing room for 2 hours. The animals were administered VU6024578 (1-10 mg/kg p.o.) or vehicle (10% Tween 80) and were placed back into their homecage for 60 min. The animals were then injected with MK-801 (0.075 mg/kg 1 ml/kg s.c.) and placed back in the homecage for 30 min. The animals are then placed into the arena with two identical familiar objects for ten minutes and then placed back into the home cage. The animals are then placed back into the arena with one of the familiar objects replaced with a novel object at 120 min after the familiar object exposure. The activity of the animals are recorded and the time spent exploring each of the objects is scored by a blinded observer. Recognition index is determined by subtracting […] divided by total time spent exploring.
Brain Slice Preparation and Fast Scanning Cyclic Voltammetry: […]
Electrically-evoked dopamine overflow was monitored with carbon fiber electrodes as previously reported (Foster et al. 2014). […]

[1] = test system: amphetamine-induced hyperlocomotion in rats; design: method as in PMID 39665415; conditions: cited from earlier work
human mGlu1 = target: T1, human mGlu1 (Homo sapiens, UniProt Q13255); design: method as in PMID 39665415; conditions: previously reported compound; cited from earlier work
T1 construct: expressed in transfected cells; pcDNA5/TO)
T1 sequence (Q13255 19-1194): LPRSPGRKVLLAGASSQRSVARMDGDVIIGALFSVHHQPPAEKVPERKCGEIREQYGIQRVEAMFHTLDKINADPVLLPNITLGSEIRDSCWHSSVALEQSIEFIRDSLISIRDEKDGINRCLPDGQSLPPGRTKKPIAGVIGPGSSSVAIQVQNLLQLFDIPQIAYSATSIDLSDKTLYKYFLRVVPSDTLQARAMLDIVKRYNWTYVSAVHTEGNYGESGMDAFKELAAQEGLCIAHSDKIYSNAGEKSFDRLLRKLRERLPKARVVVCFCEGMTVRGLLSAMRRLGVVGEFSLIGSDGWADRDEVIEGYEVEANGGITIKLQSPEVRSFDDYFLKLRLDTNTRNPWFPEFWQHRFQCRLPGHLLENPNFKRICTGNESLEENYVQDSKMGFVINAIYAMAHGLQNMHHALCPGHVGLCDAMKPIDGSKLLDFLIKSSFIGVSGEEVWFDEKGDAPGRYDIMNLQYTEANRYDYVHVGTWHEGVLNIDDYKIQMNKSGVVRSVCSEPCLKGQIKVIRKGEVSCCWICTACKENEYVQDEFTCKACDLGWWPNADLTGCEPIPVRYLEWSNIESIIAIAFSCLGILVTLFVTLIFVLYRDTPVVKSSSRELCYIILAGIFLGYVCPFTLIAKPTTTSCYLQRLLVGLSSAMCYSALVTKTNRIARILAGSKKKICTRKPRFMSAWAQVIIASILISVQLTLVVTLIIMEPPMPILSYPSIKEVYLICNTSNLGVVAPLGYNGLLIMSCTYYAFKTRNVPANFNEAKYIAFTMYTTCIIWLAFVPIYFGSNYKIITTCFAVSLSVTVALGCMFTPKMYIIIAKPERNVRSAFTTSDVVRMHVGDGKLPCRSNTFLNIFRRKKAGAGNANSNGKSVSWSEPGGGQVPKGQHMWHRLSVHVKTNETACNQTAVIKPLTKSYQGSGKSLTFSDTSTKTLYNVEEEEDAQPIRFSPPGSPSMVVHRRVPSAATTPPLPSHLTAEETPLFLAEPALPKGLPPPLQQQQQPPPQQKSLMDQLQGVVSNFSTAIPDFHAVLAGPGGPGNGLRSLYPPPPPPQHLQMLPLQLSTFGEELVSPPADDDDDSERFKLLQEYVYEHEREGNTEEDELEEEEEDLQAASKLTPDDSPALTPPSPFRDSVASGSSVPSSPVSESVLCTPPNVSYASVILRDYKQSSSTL

[2] = design: method as in PMID 39665415; conditions: cited from earlier work

SMILES | effect on striatal DA release, agonist alone (striatal DA release) | unbound brain level as fold of rat mGlu1 EC50 at which AHL was reversed [1] | mGlu1 Glumax of 3 (human mGlu1) | species with adverse events [2]
N[C@H](C(=O)O)c1cc(O)cc(O)c1 [DHPG, (S)-3,5-dihydroxyphenylglycine, reference compound] | did not produce a significant inhibition of striatal DA release |  |  | 
Cn1nc(-c2ccnn2C)cc1CNC(=O)c1cc(-c2ccco2)ccc1Cl [compound 3] |  | ~0.7 fold | 83% | only exhibited AEs in dogs

Reference: article PMC11843613, “Further Optimization of the mGlu1 PAM VU6024578/BI02982816: Discovery and Characterization of VU6033685” (ACS Chemical Neuroscience, 2025)
